Data published in patent US20080292619A1, “Pharmaceutical Composition Containing Meltrin Antagonist” (MOCHIDA PHARMACEUTICAL CO., LTD., priority 2004, published 2008).
In the oligonucleotide strings, read from the 5' end, every base follows the letter of its sugar. An asterisk marks phosphorothioate; unmarked linkages are phosphodiester. Other units and linkages are bracketed, terminal groups are in braces. A string of capitals states the bases alone. d = 2'-deoxy (DNA)

Tested on: human meltrin α RNA
Assay: Suppression of human meltrin α expression by antisense compound in RD cell (real time PCR)
Format: cell-based
Settings: 200 nM; RD cell; corrected by GAPDH
Protocol: First, RD cell (ATCC) was suspended in DMEM containing 10% fetal bovine serum (FBS, SIGMA), and the suspension was inoculated in 6 well culture plate at 2.5×10^5 cells/well/2 mL. After incubating overnight at 37° C. in the presence of 5% CO2, the cells were washed twice with serum-free DMEM, and Opti-MEM medium (GIBCO) was added at 800 μL/well.
Gene transfection reagent Lipofectin (Invitrogen) was diluted with Opti-MEM to 20 μg/mL, and the dilution was allowed to stand at room temperature for 30 minutes. Next, the antisense oligodeoxynucleotide synthesized as described above was heated at 90° C. for 3 minutes, and after quenching on ice, diluted with Opti-MEM to a concentration 10 times higher than the final concentration. Equal amounts of the Lipofectin in Opti-MEM and the antisense oligo DNA in Opti-MEM were mixed, and the mixture was incubated at room temperature for 15 minutes and added to 6 well plate at 200 μL/well.
The culture was incubated at 37° C. for 4 hours in the presence of 5% CO2, and the culture supernatant containing the Lipofectin was removed. The cells were washed twice with serum-free DMEM, and after adding 1 mL/well of Opti-MEM and incubating for 18 hours at 37° C. in the presence of 5% CO2, the cells were subjected to the measurement of the level of expression of meltrin α RNA.
After the washing, RNA was isolated from the cell by using RNA isolation kit (RNeasy Micro Kit, QIAGEN) according to the protocol of the kit, and RNA concentration was determined by measuring absorbance at a wavelength of 260 nm with a spectrophotometer (Nano prop, LMS Co., Ltd.) (1OD=40 μg/mL). After the quantitation, the RNA was prepared to a concentration of 0.1 μg/μL by using DEPC-treated water.
0.35 μg of the isolated RNA, and 3.5 μL of 10× TaqMan buffer, 7.7 μL of 25 mM MgCl2, 7.0 μL of 2.5 mM each dNTP Mix, 1.75 μL of 50 μM Random Hexamers, 0.7 μL of 20 U/μL RNase inhibitor, and 0.9 μL of 50 U/μL MultiScribe Reverse Transcriptase (all purchased from Applied Biosystems) were mixed, and water was added to make up the total volume to 35 μL. This solution was maintained at 25° C. for 10 minutes, at 48° C. for 30 minutes, and at 95° C. for 5 minutes, and reverse transcription was conducted to synthesize cDNA.
A solution in total volume of 20 μL containing 10 μL of TaqMan Universal PCR Master Mix, 0.4 μL of 10 μM TaqMan MGB Probe (sequence 5′FAM-caccgaaggacaatccca-MGB-3′: Applied Biosystems), 0.1 μL of 50 μM Forward primer (sequence ggaagccgccagattcct) for detecting meltrin α, 0.1 μL of 50 μM Reverse primer (sequence […]) for detecting meltrin α (all purchased from Sigma-Genosys), 5 μL of the cDNA solution of (3), and 4.4 μL of water was prepared, and after maintaining the solution at 50° C. for 2 minutes and at 95° C. for 10 minutes, PCR was conducted by repeating 40 cycles of 95° C. for 15 seconds and 60° C. for 1 minute in ABI Prism 7000.
The amount of the human meltrin α RNA was measured by conducting real time PCR by using the plasmid containing the cDNA coding for the human meltrin α for the template to generate the standard curve, and calculating RNA copy number of the meltrin α in each sample. The level of expression of GAPDH was also determined by using a primer and probe set for real time PCR of human GAPDH (Pre-Developed TaqMan Assay Reagents Human GAPDH (20×) (Cat# 4310884E, Applied Biosystems).
The results of the real time PCR of the meltrin α was corrected by the level of expression of the GAPDH to calculate the suppression rate. […]

| Substance | suppression rate of expression, 200 nM |
| --- | --- |
| H032: aatttcgagcgagggagaca (AATTTCGAGCGAGGGAGACA; antisense; DNA, all phosphorothioate, methylation of C not given here) | + (“+” when the suppression rate was at least 30%) |
| H033: gtgacccagaattaccgtgt (GTGACCCAGAATTACCGTGT; antisense; DNA, all phosphorothioate, methylation of C not given here) | + (“+” when the suppression rate was at least 30%) |
| H034: acatgtccatggtagtaaca (ACATGTCCATGGTAGTAACA; antisense; DNA, all phosphorothioate, methylation of C not given here) | ++ (“++” when the suppression rate was at least 50%) |
| H035: ctgaatcagaatatccccgt (CTGAATCAGAATATCCCCGT; antisense; DNA, all phosphorothioate, methylation of C not given here) | ++ (“++” when the suppression rate was at least 50%) |
| H036: acacgtgctgagactgactg (ACACGTGCTGAGACTGACTG; antisense; DNA, all phosphorothioate, methylation of C not given here) | ++ (“++” when the suppression rate was at least 50%) |
| H037: ataagtcccctgagaccaga (ATAAGTCCCCTGAGACCAGA; antisense; DNA, all phosphorothioate, methylation of C not given here) | + (“+” when the suppression rate was at least 30%) |
| H040: ttgtatctgttggttgcact (TTGTATCTGTTGGTTGCACT; antisense; DNA, all phosphorothioate, methylation of C not given here) | + (“+” when the suppression rate was at least 30%) |
| H041: gcttcttcgctgggaagagt (GCTTCTTCGCTGGGAAGAGT; antisense; DNA, all phosphorothioate, methylation of C not given here) | + (“+” when the suppression rate was at least 30%) |
| H043: gtgttgtgatgtgatccaca (GTGTTGTGATGTGATCCACA; antisense; DNA, all phosphorothioate, methylation of C not given here) | + (“+” when the suppression rate was at least 30%) |
| H044: tctttgcagcgaggtttggt (TCTTTGCAGCGAGGTTTGGT; antisense; DNA, all phosphorothioate, methylation of C not given here) | ++ (“++” when the suppression rate was at least 50%) |
| H045: agagggtggtggaaacacat (AGAGGGTGGTGGAAACACAT; antisense; DNA, all phosphorothioate, methylation of C not given here) | ++ (“++” when the suppression rate was at least 50%) |
| H046: tgccttcttgcccatgtctg (TGCCTTCTTGCCCATGTCTG; antisense; DNA, all phosphorothioate, methylation of C not given here) | ++ (“++” when the suppression rate was at least 50%) |
| H048: cagctccacatacttagttg (CAGCTCCACATACTTAGTTG; antisense; DNA, all phosphorothioate, methylation of C not given here) | ++ (“++” when the suppression rate was at least 50%) |
| H049: cggttgtctgccacgatcac (dC*dG*dG*dT*dT*dG*dT*dC*dT*dG*dC*dC*dA*dC*dG*dA*dT*dC*dA*dC; antisense) | + (“+” when the suppression rate was at least 30%) |
| H055: tccacgcctaccaacacgat (dT*dC*dC*dA*dC*dG*dC*dC*dT*dA*dC*dC*dA*dA*dC*dA*dC*dG*dA*dT; antisense) | ++ (“++” when the suppression rate was at least 50%) |
| H058: tcatggaggctggtgaatgg (dT*dC*dA*dT*dG*dG*dA*dG*dG*dC*dT*dG*dG*dT*dG*dA*dA*dT*dG*dG; antisense) | ++ (“++” when the suppression rate was at least 50%) |
| H061: agctgcgcattgtcatggga (dA*dG*dC*dT*dG*dC*dG*dC*dA*dT*dT*dG*dT*dC*dA*dT*dG*dG*dG*dA; antisense) | + (“+” when the suppression rate was at least 30%) |
| H063: catgccgatggtggtccctt (dC*dA*dT*dG*dC*dC*dG*dA*dT*dG*dG*dT*dG*dG*dT*dC*dC*dC*dT*dT; antisense) | ++ (“++” when the suppression rate was at least 50%) |
| H065: ccccagactggtctgccgtg (dC*dC*dC*dC*dA*dG*dA*dC*dT*dG*dG*dT*dC*dT*dG*dC*dC*dG*dT*dG; antisense) | ++ (“++” when the suppression rate was at least 50%) |
| H068: gctcatgtgccagggtcacg (dG*dC*dT*dC*dA*dT*dG*dT*dG*dC*dC*dA*dG*dG*dG*dT*dC*dA*dC*dG; antisense) | + (“+” when the suppression rate was at least 30%) |
| H069: catcccgaaattgtggccca (dC*dA*dT*dC*dC*dC*dG*dA*dA*dA*dT*dT*dG*dT*dG*dG*dC*dC*dC*dA; antisense) | + (“+” when the suppression rate was at least 30%) |
| H070: ctgtccagtgtgtcatgatt (dC*dT*dG*dT*dC*dC*dA*dG*dT*dG*dT*dG*dT*dC*dA*dT*dG*dA*dT*dT; antisense) | + (“+” when the suppression rate was at least 30%) |
| H071: ccatttgacagctacagccc (dC*dC*dA*dT*dT*dT*dG*dA*dC*dA*dG*dC*dT*dA*dC*dA*dG*dC*dC*dC; antisense) | + (“+” when the suppression rate was at least 30%) |
| H072: gcagcctcctttctcaaccg (dG*dC*dA*dG*dC*dC*dT*dC*dC*dT*dT*dT*dC*dT*dC*dA*dA*dC*dC*dG; antisense) | + (“+” when the suppression rate was at least 30%) |
| H074: acaccatgggaaatgggtac (dA*dC*dA*dC*dC*dA*dT*dG*dG*dG*dA*dA*dA*dT*dG*dG*dG*dT*dA*dC; antisense) | + (“+” when the suppression rate was at least 30%) |
| H075: cttcctgctgcaactgctga (dC*dT*dT*dC*dC*dT*dG*dC*dT*dG*dC*dA*dA*dC*dT*dG*dC*dT*dG*dA) | + (“+” when the suppression rate was at least 30%) |

Same assay, conditions: 200 nM; chimeric 2′-methoxy antisense oligonucleotides; RD cell

| Substance | suppression rate of expression, 200 nM |
| --- | --- |
| H075-OMe1: chimeric antisense oligonucleotide TGCTGcaactgctgaACACC, uppercase 2′-methoxy nucleotides, lowercase phosphorothioate nucleotides (TGCTGCAACTGCTGAACACC; 2'-O-methyl at 1, 2, 3, 4, 5, 16, 17, 18, 19, 20, other sugars, backbone and T or U not given here; lowercase gap nucleotides phosphorothioate) | + (“+” when the suppression rate was at least 30%) |
| H075-OMe2: chimeric antisense oligonucleotide AAGTCcttcctgctgCAACT, uppercase 2′-methoxy nucleotides, lowercase phosphorothioate nucleotides (AAGTCCTTCCTGCTGCAACT; 2'-O-methyl at 1, 2, 3, 4, 5, 16, 17, 18, 19, 20, other sugars, backbone and T or U not given here; lowercase gap nucleotides phosphorothioate) | + (“+” when the suppression rate was at least 30%) |
